Source: patent US8252806B2, “Potassium channel modulating agents and their medical use” (Neurosearch A/S, priority 2005, dated 2012)

What was measured:
[1] = biological target: T1, small-conductance Ca2+-activated K+ channel, subtype 3 (SK3) (Homo sapiens, UniProt Q9UGI6); assay: Whole-cell patch-clamp recording of SK3 current in HEK293 cells stably expressing hSK3; type: cell-based; conditions: baseline current at -20 mV, 300 nM free Ca2+
T1 construct: expressed in transfected cells; host or cells: HEK293 cells stably transfected with pNS3_hSK3
Method: The ionic current through small-conductance Ca^2+-activated K^+ channels (SK channels, subtype 3) is recorded using the whole-cell configuration of the patch-clamp technique.
The small-conductance Ca^2+-activated K^+ channel, subtype 3 (SK3) was cloned from human skeletal muscle and stably expressed in HEK293 cells.
Human SK3 (hSK3) was sub-cloned into the expression vector pNS3n, a customized vector derived from pcDNA3 (InVitrogen) to give the plasmid construct pNS3_hSK3. HEK293 tissue culture cells were grown in DMEM (Dulbecco's Modified Eagle Medium) supplemented with 10% FCS (foetal calf serum) at 37° C. in 5% CO2. […]
Experiments are carried out on one of several patch-clamp set-ups. […] Data are stored directly on the hard-disk and analysed by IGOR software (Wavemetrics, Lake Oswega, Oreg., USA).
The whole-cell configuration of the patch-clamp technique is applied. […] Cell capacitance is electronically compensated and the resistance between the pipette and the cell interior (the series resistance, Rs) is measured and compensated for. […]
The intracellular (pipette) solution has the following composition (in mM): 105 KCl, 45 KOH, 10 EGTA, 1.21 MgCl2, 7.63 CaCl2, and 10 HEPES (pH=7.2 with HCl). The calculated free concentration of Ca^2+ in this solution is 300 nM and that of Mg^2+ is 1 mM. […]
Active compounds are quantified by calculating the change in baseline current at −20 mV. […]

Row | SC100 (Stimulating Concentration required for increasing the baseline current by 100%) [1] [µM] | melting point [°C] | SMILES
1 | 0.035 | – | Cc1cc(C)n(-c2nc(NC3CCCCC3)c3ccccc3n2)n1 [Compound A8, Cyclohexyl-[2-(3,5-dimethyl-pyrazol-1-yl)-quinazolin-4-yl]-amine]
2 | – | 262.4 to 265.3 | Cc1cc(C)n(-c2nc(Nc3ccccc3)c3ccccc3n2)n1 [Compound B1, [2-(3,5-Dimethyl-pyrazol-1-yl)-quinazolin-4-yl]-phenyl-amine]
